Where a name gives a salt, the structure may show the parent alone. Read-outs that look alike come from different tables or passages of the source.
How the values were obtained:
BRD4 binding domain 1 = molecular target: T1, BRD4 binding domain 1 (Homo sapiens, UniProt O60885); test: Bromodomain protein inhibition (Reaction Biology Corp.)
T1 construct: Reaction Biology Corp., Malvern, PA (contract assay service)
Protocol: (§1) PI3K-alpha, PI3K-beta, PI3K-gamma, and PI3K-delta inhibition activity was determined by Thermo Fisher Scientific-Biosciences Life Sciences Solutions, Madison, WI The bromodomain protein inhibition (binding domain 1 and 2 of BRD4) was determined by Reaction Biology Corp., Malvern, PA The cyclin dependent kinase inhibition on proteins such as CDK2, CDK4, CDK6, and CDK9 was determined by Reaction Biology Corp., Malvern, PA.
(§2) The compounds of the invention were characterized by their ability to inhibit the target proteins using third party vendors offering such services. PI3K-alpha, PI3K-gamma, and PI3K-delta inhibition activity was determined by Thermo Fisher Scientific-Biosciences Life Sciences Solutions, Madison, WI. […] ND=not done.

BRD4 binding domain 2 = molecular target: T2, BRD4 binding domain 2 (Homo sapiens, UniProt O60885); test: as above
T2 construct: Reaction Biology Corp., Malvern, PA (contract assay service)
Protocol: as §1, §2

CDK4/Cyclin D1 = CDK4/Cyclin D1 (Homo sapiens, UniProt P11802); settings: Divakar et al., Leukemia 2016; cited from earlier work
CDK6/Cyclin D1 = CDK6/Cyclin D1 (Homo sapiens, UniProt Q00534); settings: Divakar et al., Leukemia 2016; cited from earlier work
Granta = test: Mantle cell lymphoma cell viability, AlamarBlue; type: cell-based; settings: 48 hours; read-out: Mantle Cell Line IC50 Values Granta
Protocol: (§3) Mantle cell lymphoma cell lines Granta, Mino and Jeko-1 were seeded at a density of 2500 cells/0.1 mL per well in a 96-well plate. Compounds 1 or Palbociclib were added post-plating at 50 μM-50 nM concentrations for 48 hours followed by addition of AlamarBlue® and incubation of plates at 37° C. in 5% CO2 for 6 hours. Fluorescence signals were read as emission at 590 nm after excitation at 560 nm. IC50 for each cell line was determined using Graphpad Prism software module.

Jeko-1 = test: Mantle cell lymphoma cell viability, AlamarBlue; type: cell-based; settings: Homo sapiens, JeKo-1; 48 hours; read-out: Mantle Cell Line IC50 Values Jeko-1
Protocol: as §3

Mino = test: Mantle cell lymphoma cell viability, AlamarBlue; type: cell-based; settings: Homo sapiens, MINO; 48 hours; read-out: Mantle Cell Line IC50 Values Mino
Protocol: as §3

Huh7 2H cell line = test: Huh7 2H cell viability; type: cell-based; settings: for IC50: Homo sapiens, Huh-7, 2 h
Protocol: (§4) Cells were seeded into 96-well plate at 1×10^4 cell per well in complete medium+10% FCS and incubated for 24 hours prior to the addition of compounds at concentrations ranging from 50 μM to 50 nM. Cell viability was quantitated 24 hours after the addition of compounds using AlamarBlue® viable cell detection reagent. IC50 curves were determined using Graphpad Prism software.
The procedures of example 6 were followed except using the Huh7 2H cell line.

PI3 kinases = settings: C. J. Vlahos et al., J. Biol. Chem. 1994; cited from earlier work
CDK4 = molecular target: T3, CDK4 (Homo sapiens, UniProt P11802); test: Cyclin dependent kinase inhibition (Reaction Biology Corp.); type: biochemical; settings: 10-point curve, grouped by potency
T3 construct: Reaction Biology Corp., Malvern, PA (contract assay service)
Protocol: as §1
(§5) The compounds of the invention were characterized by their ability to inhibit the target proteins using third party vendors offering such services. PI3K-alpha, PI3K-gamma, and PI3K-delta inhibition activity was determined by Thermo Fisher Scientific-Biosciences Life Sciences Solutions, Madison, WI. […] NI=no inhibition detected up to 50 μM or IC50 not reached at 50 μM. ND=not done.

CDK6 = molecular target: T4, CDK6 (Homo sapiens, UniProt Q00534); test: as above; type: biochemical; settings: 10-point curve, grouped by potency
T4 construct: Reaction Biology Corp., Malvern, PA (contract assay service)
Protocol: as §1, §5

PI3K-alpha = molecular target: T5, PI3K-alpha (Homo sapiens, UniProt P42336); test: PI3K inhibition (Thermo Fisher Scientific); type: biochemical; settings: 10-point curve, grouped by potency; read-out: IC50 P13K α
T5 construct: Thermo Fisher Scientific-Biosciences Life Sciences Solutions, Madison, WI (contract assay service)

PI3K-delta = molecular target: T6, PI3K-delta (Homo sapiens, UniProt O00329); test: PI3K inhibition (Thermo Fisher Scientific); type: biochemical; settings: 10-point curve, grouped by potency; read-out: IC50 P13K δ
T6 construct: Thermo Fisher Scientific-Biosciences Life Sciences Solutions, Madison, WI (contract assay service)
Protocol: as §1, §5

PI3K-gamma = molecular target: T7, PI3K-gamma (Homo sapiens, UniProt P48736); test: PI3K inhibition (Thermo Fisher Scientific); type: biochemical; settings: 10-point curve, grouped by potency; read-out: IC50 P13K γ
T7 construct: Thermo Fisher Scientific-Biosciences Life Sciences Solutions, Madison, WI (contract assay service)
Protocol: as §1, §5

Hep3B = test: Hepatocellular carcinoma cell viability, AlamarBlue; type: cell-based; settings: Homo sapiens, 24 hours, read-out: Hepatocarcinoma Cell Line IC50 Values Hep3B
Protocol: as §4

HepG2 = test: as above; type: cell-based; settings: Homo sapiens, 24 hours, read-out: Hepatocarcinoma Cell Line IC50 Values HepG2
Protocol: as §4

Huh7 = test: as above; type: cell-based; settings: Homo sapiens, Huh-7; 24 hours; read-out: Hepatocarcinoma Cell Line IC50 Values Huh7
Protocol: as §4

[1] = 10-point curve, grouped by potency, read-out: IC50 BRD4-1
[2] = 10-point curve, grouped by potency, read-out: IC50 BRD4-2

T5 sequence (P42336 whole entry): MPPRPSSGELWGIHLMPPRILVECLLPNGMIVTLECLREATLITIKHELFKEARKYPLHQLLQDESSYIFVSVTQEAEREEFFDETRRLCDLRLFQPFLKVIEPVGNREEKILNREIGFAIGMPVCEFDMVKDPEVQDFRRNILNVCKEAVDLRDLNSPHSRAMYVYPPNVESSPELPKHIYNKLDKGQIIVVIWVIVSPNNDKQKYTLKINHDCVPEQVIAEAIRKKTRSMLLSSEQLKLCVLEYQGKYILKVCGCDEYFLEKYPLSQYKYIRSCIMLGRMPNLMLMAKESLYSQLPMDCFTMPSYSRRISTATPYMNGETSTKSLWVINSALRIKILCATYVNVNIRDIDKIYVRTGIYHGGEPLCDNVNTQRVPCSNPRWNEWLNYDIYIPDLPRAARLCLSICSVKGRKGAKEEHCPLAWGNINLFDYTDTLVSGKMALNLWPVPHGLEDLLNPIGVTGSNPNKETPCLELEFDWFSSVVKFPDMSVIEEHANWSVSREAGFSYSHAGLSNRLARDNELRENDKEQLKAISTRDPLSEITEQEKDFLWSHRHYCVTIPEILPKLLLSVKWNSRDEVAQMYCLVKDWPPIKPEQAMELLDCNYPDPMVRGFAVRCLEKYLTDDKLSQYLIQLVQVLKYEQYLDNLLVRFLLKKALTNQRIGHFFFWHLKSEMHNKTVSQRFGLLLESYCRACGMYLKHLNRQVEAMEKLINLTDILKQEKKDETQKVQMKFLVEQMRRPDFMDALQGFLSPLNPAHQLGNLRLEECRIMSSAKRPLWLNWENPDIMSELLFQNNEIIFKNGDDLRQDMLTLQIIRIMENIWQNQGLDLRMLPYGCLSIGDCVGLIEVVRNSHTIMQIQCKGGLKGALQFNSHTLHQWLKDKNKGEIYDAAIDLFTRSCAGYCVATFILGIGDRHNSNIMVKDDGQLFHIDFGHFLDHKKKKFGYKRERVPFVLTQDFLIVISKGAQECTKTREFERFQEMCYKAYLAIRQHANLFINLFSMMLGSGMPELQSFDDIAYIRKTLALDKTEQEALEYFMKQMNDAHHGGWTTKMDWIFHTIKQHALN
T5 sequence (P27986 whole entry partner): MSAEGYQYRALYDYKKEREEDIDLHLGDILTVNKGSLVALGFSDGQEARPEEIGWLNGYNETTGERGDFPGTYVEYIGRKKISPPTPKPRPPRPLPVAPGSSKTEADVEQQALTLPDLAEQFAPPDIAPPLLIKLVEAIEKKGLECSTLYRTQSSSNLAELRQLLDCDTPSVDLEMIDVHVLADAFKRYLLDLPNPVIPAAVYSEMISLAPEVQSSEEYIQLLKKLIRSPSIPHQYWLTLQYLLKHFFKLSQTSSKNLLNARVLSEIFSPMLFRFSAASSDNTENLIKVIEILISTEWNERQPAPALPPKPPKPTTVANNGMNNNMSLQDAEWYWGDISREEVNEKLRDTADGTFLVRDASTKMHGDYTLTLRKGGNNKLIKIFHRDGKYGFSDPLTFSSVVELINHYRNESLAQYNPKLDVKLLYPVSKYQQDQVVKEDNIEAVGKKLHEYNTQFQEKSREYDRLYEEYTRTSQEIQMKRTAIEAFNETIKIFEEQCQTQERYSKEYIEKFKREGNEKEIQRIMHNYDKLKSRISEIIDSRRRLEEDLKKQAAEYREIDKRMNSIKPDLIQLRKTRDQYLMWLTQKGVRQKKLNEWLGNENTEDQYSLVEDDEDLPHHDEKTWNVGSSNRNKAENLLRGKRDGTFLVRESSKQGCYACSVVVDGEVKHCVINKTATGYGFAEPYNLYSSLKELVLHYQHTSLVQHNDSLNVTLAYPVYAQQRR
T4 sequence (Q00534 whole entry): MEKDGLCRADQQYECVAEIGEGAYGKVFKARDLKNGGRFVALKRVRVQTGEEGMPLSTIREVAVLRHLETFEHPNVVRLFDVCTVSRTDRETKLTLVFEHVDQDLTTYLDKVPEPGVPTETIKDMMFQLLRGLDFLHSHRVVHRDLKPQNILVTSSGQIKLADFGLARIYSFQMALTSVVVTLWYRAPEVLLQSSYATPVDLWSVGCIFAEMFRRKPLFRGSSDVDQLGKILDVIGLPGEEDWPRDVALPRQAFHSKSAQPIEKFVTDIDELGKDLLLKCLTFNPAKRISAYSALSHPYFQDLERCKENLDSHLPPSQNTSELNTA
T4 sequence (P24385 whole entry partner): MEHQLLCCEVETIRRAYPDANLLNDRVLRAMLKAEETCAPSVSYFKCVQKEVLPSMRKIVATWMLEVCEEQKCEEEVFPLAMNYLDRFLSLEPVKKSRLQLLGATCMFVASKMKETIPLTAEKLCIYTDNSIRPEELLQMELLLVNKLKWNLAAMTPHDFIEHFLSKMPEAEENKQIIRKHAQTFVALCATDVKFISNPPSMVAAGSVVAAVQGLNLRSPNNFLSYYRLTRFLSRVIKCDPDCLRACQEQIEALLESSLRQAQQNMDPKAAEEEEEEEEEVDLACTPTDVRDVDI
T7 sequence (P48736 whole entry): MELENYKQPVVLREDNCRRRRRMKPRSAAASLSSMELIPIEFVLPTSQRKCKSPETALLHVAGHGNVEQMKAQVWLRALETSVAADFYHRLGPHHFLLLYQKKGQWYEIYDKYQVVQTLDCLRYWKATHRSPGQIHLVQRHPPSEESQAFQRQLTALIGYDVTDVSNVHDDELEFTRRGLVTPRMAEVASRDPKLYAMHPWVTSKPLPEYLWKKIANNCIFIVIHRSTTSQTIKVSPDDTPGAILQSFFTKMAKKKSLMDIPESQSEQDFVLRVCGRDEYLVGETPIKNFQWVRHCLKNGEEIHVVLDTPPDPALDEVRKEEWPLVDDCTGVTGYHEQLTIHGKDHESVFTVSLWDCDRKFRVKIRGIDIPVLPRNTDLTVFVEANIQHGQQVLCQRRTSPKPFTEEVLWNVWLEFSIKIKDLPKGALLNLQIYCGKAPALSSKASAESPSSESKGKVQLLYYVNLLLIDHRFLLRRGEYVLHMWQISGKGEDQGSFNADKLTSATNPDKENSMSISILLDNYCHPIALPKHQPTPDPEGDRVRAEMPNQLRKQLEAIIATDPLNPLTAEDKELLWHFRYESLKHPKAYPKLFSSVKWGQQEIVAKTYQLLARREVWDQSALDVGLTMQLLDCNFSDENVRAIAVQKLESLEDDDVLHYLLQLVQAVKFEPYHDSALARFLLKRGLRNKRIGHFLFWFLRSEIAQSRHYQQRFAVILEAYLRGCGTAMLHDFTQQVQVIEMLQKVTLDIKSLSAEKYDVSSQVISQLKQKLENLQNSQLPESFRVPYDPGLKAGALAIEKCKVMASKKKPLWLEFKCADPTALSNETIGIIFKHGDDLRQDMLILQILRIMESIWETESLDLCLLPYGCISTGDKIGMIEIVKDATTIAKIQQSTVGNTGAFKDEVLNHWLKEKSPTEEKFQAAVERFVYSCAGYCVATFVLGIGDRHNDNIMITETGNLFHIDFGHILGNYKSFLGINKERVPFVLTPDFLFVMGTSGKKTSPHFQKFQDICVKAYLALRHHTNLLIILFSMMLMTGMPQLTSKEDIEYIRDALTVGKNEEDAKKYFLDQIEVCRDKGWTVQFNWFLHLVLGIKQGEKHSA
T6 sequence (O00329 whole entry): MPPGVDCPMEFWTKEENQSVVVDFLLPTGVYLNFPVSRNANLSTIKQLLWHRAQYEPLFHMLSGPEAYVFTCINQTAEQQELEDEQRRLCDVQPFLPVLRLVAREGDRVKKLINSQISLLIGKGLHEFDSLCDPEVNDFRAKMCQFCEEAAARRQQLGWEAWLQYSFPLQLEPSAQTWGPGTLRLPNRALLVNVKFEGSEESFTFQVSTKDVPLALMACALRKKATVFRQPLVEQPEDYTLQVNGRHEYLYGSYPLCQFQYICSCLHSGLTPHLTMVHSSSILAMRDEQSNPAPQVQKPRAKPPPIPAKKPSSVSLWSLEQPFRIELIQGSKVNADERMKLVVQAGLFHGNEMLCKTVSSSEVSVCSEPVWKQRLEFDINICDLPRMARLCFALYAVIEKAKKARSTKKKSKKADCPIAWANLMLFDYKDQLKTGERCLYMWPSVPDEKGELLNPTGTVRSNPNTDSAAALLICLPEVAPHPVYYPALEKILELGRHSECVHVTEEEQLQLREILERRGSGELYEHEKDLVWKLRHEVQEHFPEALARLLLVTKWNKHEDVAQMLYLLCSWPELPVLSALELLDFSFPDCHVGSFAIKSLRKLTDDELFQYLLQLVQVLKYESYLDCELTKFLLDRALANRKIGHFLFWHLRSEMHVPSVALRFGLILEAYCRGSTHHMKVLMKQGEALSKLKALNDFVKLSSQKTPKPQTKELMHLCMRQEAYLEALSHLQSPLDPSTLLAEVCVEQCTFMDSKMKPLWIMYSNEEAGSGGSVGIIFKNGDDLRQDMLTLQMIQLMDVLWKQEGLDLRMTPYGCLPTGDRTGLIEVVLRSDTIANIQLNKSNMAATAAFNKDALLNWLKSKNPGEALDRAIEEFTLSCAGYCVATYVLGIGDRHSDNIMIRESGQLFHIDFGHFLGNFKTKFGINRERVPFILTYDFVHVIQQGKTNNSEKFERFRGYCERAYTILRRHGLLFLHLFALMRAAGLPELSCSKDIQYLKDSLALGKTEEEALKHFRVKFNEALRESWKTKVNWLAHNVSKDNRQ
T6 sequence (P27986 whole entry partner): as the sequence (P27986 whole entry partner) above
T3 sequence (P11802 whole entry): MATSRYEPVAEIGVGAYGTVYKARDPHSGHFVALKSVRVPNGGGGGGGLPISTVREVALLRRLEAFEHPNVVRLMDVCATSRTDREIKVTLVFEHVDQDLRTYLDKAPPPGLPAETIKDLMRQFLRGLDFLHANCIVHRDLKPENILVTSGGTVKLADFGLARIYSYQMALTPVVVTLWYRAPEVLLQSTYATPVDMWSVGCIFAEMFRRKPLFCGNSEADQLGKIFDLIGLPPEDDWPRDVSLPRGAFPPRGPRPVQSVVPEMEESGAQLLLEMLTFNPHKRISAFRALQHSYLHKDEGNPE
T3 sequence (P24385 whole entry partner): as the sequence (P24385 whole entry partner) above
CDK6/Cyclin D1, sequence (Q00534 whole entry, species assumed): as the sequence (Q00534 whole entry) above
CDK6/Cyclin D1, sequence (P24385 whole entry partner, species assumed): as the sequence (P24385 whole entry partner) above

Row | SMILES | IC50 (CDK4) [nM] | IC50 (CDK6) [nM] | IC50 (BRD4 binding domain 1; [1]) [nM] | IC50 (BRD4 binding domain 2; [2]) [nM] | IC50 (PI3K-alpha) [nM] | IC50 (PI3K-delta) [nM] | IC50 (PI3K-gamma) [nM] | other results
1 | CN1CCN(c2ccc(Nc3ncc4cc(C#N)c(=O)n(C5CCCC5)c4n3)cc2)CC1 [ON123300, reference compound] |  |  |  |  |  |  |  | IC50 (BRD4 binding domain 1; read-out: IC50 BRD4 binding domain 1): 45600 nM; IC50 (BRD4 binding domain 2; read-out: IC50 BRD4 binding domain 2): > 50000 nM; IC50 (CDK4/Cyclin D1): 3.87 nM; IC50 (CDK6/Cyclin D1): 9.82 nM
2 | CC(=O)c1c(C)c2cnc(Nc3ccc(N4CCNCC4)cn3)nc2n(C2CCCC2)c1=O [Palbociclib, reference compound] |  |  |  |  |  |  |  | IC50 (Granta): 10200 nM; IC50 (Jeko-1): 7430 nM; IC50 (Mino): 47900 nM; IC50 (Huh7 2H cell line): 9200 nM; times less potent than Compound 1, Huh7 2H (Huh7 2H cell line; ratio of IC50 values): about 18 times
3 | O=c1cc(N2CCOCC2)oc2c(-c3ccccc3)cccc12 [LY294002, 2-(4-morpholinyl)-8-phenyl-4H-1-benzopyran-4-one] |  |  |  |  |  |  |  | IC50 (PI3 kinases): 1400 nM
4 | COC(=O)c1cc(Nc2ncc3cc(C(=O)N(C)C)n(C4CCCC4)c3n2)ccc1-c1csc2c(=O)cc(N3CCOCC3)oc12 [Compound 7, Methyl 5-[1-cyclopentyl-2-(dimethylamino)carbonyl-1,5,7-triaza-1H-inden-6-ylamino]-2-(5-morpholino-7-oxo-4-oxa-1-thia-3-indenyl)benzoate] | < 100 | < 100 | 100 to 1000 | 100 to 1000 | 100 to 1000 | < 100 | 1000 to 5000 | 
5 | CN(C)C(=O)c1cc2cnc(Nc3ccc(-c4csc5c(=S)cc(N6CCOCC6)oc45)cc3)nc2n1C1CCCC1 [Compound 11, {1-Cyclopentyl-6-[p-(5-morpholino-7-thioxo-4-oxa-1-thia-3-indenyl)phenylamino]-1,5,7-triaza-1H-inden-2-yl}(dimethylamino)formaldehyde] | < 100 | < 100 | 1000 to 5000 | 1000 to 5000 | 100 to 1000 | 100 to 1000 | 5000 to 50000 | 
6 | CN(C)C(=O)c1cc2cnc(Nc3ccc(-c4csc5c(=O)cc(N6CCNCC6)oc45)cc3)nc2n1C1CCCC1 [compound 2, (1-Cyclopentyl-6-{p-[7-oxo-5-(1-piperazinyl)-4-oxa-1-thia-3-indenyl]phenylamino}-1,5,7-triaza-1H-inden-2-yl)(dimethylamino)formaldehyde hydrochloride] | < 100 | < 100 | 100 to 1000 | 100 to 1000 | 5000 to 50000 | 5000 to 50000 | 5000 to 50000 | 
7 | O=c1cc(N2CCOCC2)oc2c(-c3ccc4c(c3)OCCO4)csc12 [Compound 0, reference compound] |  |  |  |  |  |  |  | IC50 (Hep3B): 6600 nM; IC50 (HepG2): 5000 nM; IC50 (Huh7): 14300 nM; IC50 (Huh7 2H cell line): 2970 to 5900 nM
8 | CN(C)C(=S)c1cc2cnc(Nc3ccc(-c4csc5c(=S)cc(N6CCOCC6)oc45)cc3)nc2n1C1CCCC1 [Compound 12, 7-Cyclopentyl-N,N-dimethyl-2-((4-(5-morpholino-7-thioxo-7H-thieno[3,2-b]pyran-3-yl)phenyl)amino)-7H-pyrrolo[2,3-d]pyrimidine-6-carbothioamide] | 100 to 1000 | 100 to 1000 | 5000 to 50000 | 5000 to 50000 | 100 to 1000 | 100 to 1000 | 5000 to 50000 | 

Second part, led by results:

Row | IC50 (CDK4) [nM] | IC50 (CDK6) [nM] | IC50 (BRD4 binding domain 1; [1]) [nM] | IC50 (BRD4 binding domain 2; [2]) [nM] | IC50 (PI3K-alpha) [nM] | IC50 (PI3K-delta) [nM] | IC50 (PI3K-gamma) [nM] | SMILES | other results
9 | 5000 to 50000 | 5000 to 50000 | < 100 | 100 to 1000 | < 100 | 100 to 1000 | 100 to 1000 | CN(C)C(=O)c1cc2cnc(Nc3ccc(-c4csc5c(=O)cc(N6CCOCC6)oc45)c(C(=O)O)c3)nc2n1C1CCCC1 [Compound 10, 5-[1-Cyclopentyl-2-(dimethylamino)carbonyl-1,5,7-triaza-1H-inden-6-ylamino]-2-(5-morpholino-7-oxo-4-oxa-1-thia-3-indenyl)benzoic acid] | 
10 | < 100 | < 100 | 100 to 1000 | 1000 to 5000 | 5000 to 50000 | 100 to 1000 | 1000 to 5000 | CN(C)C(=O)c1cc2cnc(Nc3ccc(-c4csc5c(=O)cc(N6CCN(C(=O)OC(C)(C)C)CC6)oc45)cc3)nc2n1C1CCCC1 [Compound 18] | 
11 | < 100 | < 100 |  | 100 to 1000 | 100 to 1000 | < 100 | 100 to 1000 | CN(C)C(=O)c1cc2cnc(Nc3ccc(-c4csc5c(=O)cc(N6CCOCC6)oc45)cn3)nc2n1C1CCCC1 [Compound 3, {1-Cyclopentyl-6-[5-(5-morpholino-7-oxo-4-oxa-1-thia-3-indenyl)-2-pyridylamino]-1,5,7-triaza-1H-inden-2-yl}(dimethylamino)formaldehyde] | IC50 BRD4-1 (BRD4 binding domain 1; 10-point curve, grouped by potency): * to **
12 | < 100 | < 100 | > 50000 | > 50000 | 5000 to 50000 | 1000 to 5000 | > 50000 | Cc1nc2c(F)cc(-c3nc(Nc4ccc(-c5csc6c(=O)cc(N7CCOCC7)oc56)cc4)ncc3F)cc2n1C(C)C [Compound 5, 3-{p-[5-Fluoro-4-(7-fluoro-3-isopropyl-2-methyl-1,3-diaza-3H-inden-5-yl)-2-pyrimidinylamino]phenyl}-5-morpholino-4-oxa-1-thia-7-indenone] | 
13 | < 100 | < 100 | 100 to 1000 | 100 to 1000 | < 100 | < 100 | 1000 to 5000 | CC(=O)c1c(C)c2cnc(Nc3ccc(-c4csc5c(=O)cc(N6CCOCC6)oc45)cc3)nc2n(C2CCCC2)c1=O [Compound 6, 1-{8-cyclopentyl-5-methyl-2-[p-(5-morpholino-7-oxo-4-oxa-1-thia-3-indenyl)phenylamino]-7-oxo-1,3,8-triaza-8H-naphth-6-yl}-1-ethanone] | 
14 | > 50000 | > 50000 | 100 to 1000 | 1000 to 5000 | 100 to 1000 | 100 to 1000 | 1000 to 5000 | COC(=O)c1cc(-c2csc3c(=O)cc(N4CCOCC4)oc23)ccc1Nc1ncc2cc(C(=O)N(C)C)n(C3CCCC3)c2n1 [Compound 4, Methyl 2-[1-cyclopentyl-2-(dimethylamino)carbonyl-1,5,7-triaza-1H-inden-6-ylamino]-5-(5-morpholino-7-oxo-4-oxa-1-thia-3-indenyl)benzoate] | 

Reference: patent US11760762B2, “Thienopyranones and furanopyranones as kinase, bromodomain, and checkpoint inhibitors” (SignalRx Pharmaceuticals, Inc., priority 2017, dated 2023)
